{
  "source": "paper PMC8205030",
  "about": "“Methoxy and bromo scans on N-(5-methoxyphenyl) methoxybenzenesulphonamides reveal potent cytotoxic compounds, especially against the human breast adenocarcinoma MCF7 cell line” (Journal of Enzyme Inhibition and Medicinal Chemistry, 2021)",
  "assay_type_in_all_cases": "cell-based, human",
  "key": {"[1]": {"tested_on": "p-62 in MCF7 cells", "test": "Western blot of autophagosome marker p-62, MCF7", "settings": "MCF7, 175 nM, 24 h", "procedure": "MCF7, HeLa and HT-29 cells in an exponential growth phase at 2 × 10^4 cells/mL were seeded in Petri dishes (20 × 100 mm) (10 ml/dish). After 24 h incubation, cells were treated with compound 25 at 175 nM, and the levels of p-62 in treated and untreated cells were measured at 24 h post-treatment. The culture medium was removed, cells were washed with PBS and resuspended in 1 ml lysis buffer (50 mM Tris, 130 mM NaCl, 1 mM EDTA, 1% Triton X-100) containing protease inhibitors (Complete, Roche Applied Science, Indianapolis). Cells were harvested and incubated with lysis buffer for 30 min at 4 °C in constant agitation. Cell extracts were centrifuged at 12,000 rpm for 15 min at 4 °C and the supernatants were stored at −80 °C. Protein concentrations were determined using Bradford (BioRad, Hercules, CA) method taking BSA (Bovine Serum Albumin) as standard. Protein extracts were used for electrophoresis mixing with loading buffer (4% SDS, 0.05% bromophenol blue, 20% glycerine, 2% β-mercaptoethanol, and Tris 100 mM at pH 6.8). Proteins were then denatured at 95 °C for 7 min. Protein samples (50 μg/lane) were subjected to electrophoresis on 8% acrylamide gel and SDS-PAGE running buffer at constant voltage (140 V). Then, acrylamide gels were transferred to a PVDF membrane (Merck Millipore, Burlington, Massachusetts, USA) using a semi-dry transfer system for 30 min at constant voltage (15 V). […]"}, "[2]": {"tested_on": "HeLa cells", "test": "Apoptotic cell death quantification (Annexin V-FITC/PI), HeLa", "settings": "72 h", "procedure": "(§1) MCF7, HeLa, and HT-29 apoptotic cells were quantified using an Annexin V-FITC/PI apoptosis detection kit (Immunostep, Salamanca, Spain) according to the manufacturer’s guidelines. 1.5 ml/well of cells in the exponential growth phase at 2 × 10^4 cells/mL were seeded onto 12-well plates and left to attach overnight. After 24 h incubation, cells were treated with compound 25 at 87.5 or 175 nM. 72 h post-treatment, attached and floating cells of treated and untreated wells were collected, centrifuged, resuspended in the Annexin V binding buffer, and stained with Annexin V-FITC/PI. Cells were then incubated in darkness at room temperature for 15 min and a total of 30,000 cells were acquired and analysed using the BD Accuri™ C6 Plus Flow Cytometer and Software (version 1.0.264.21, BD Biosciences, San José, CA, USA), respectively. Compounds were dissolved in DMSO and the final solvent concentrations never exceeded 0.5% (v/v). Control wells included cells with 0.5% (v/v) DMSO."}, "[3]": {"tested_on": "microtubule network of MCF7 cells", "test": "Immunofluorescence of microtubule network, MCF7", "settings": "MCF7, 175 nM, 72 h, confocal microscopy", "procedure": "MCF7, HeLa, and HT-29 cells were grown on round glass coverslips coated with poly-L-lysine (12 mm diameter). To reach appropriate cell confluence, coverslips were manipulated in 6-well plates (3 coverslips/well) seeding 3 ml/well of cells in the exponential growth phase at 2 × 10^4 cells/mL. After 24 h incubation, cells were treated with compound 25 at 175 nM and incubated for 72 h. Cells were washed with PBS, fixed with 4% formaldehyde in PBS for 10 min, permeabilized with 0.5% Triton X-100 (Boehringer Mannheim, Ingelheimam Rhein, Germany) in PBS for 10 min, and blocked with 10% BSA in PBS for 30 min. Then, coverslips were incubated with anti-α-tubulin mouse monoclonal antibody (diluted 1:200 in 3% BSA/PBS) (Sigma-Aldrich Co.) and anti-SQSTM1/p62 rabbit monoclonal antibody (diluted 1:100 in 3% BSA/PBS) (Abcam) for 1 h 30 min. After PBS washing, coverslips were incubated with fluorescent secondary antibodies Alexa Fluor 488 goat anti-mouse IgG and Alexa Fluor 594 anti-rabbit (both diluted 1:400 in 1% BSA/PBS) (Molecular Probes, Invitrogen, Thermo Fischer Scientific) for 1 h in darkness. […] Cells were analysed by confocal microscopy using a LEICA SP5 microscope DMI-6000V model coupled to a LEICA LAS AF software computer."}, "[4]": {"tested_on": "MCF7 cells", "test": "Apoptotic cell death quantification (Annexin V-FITC/PI), MCF7", "settings": "72 h", "procedure": "as §1"}},
  "data": [
    {"smiles": "COc1ccc(S(=O)(=O)N(CC#N)c2cc(OC)c(Br)cc2OC)cc1", "note": "[Compound 25, N-(4-bromo-2,5-dimethoxyphenyl)-N-(cyanomethyl)-4-methoxybenzenesulphonamide]", "values": [
      {"measurement": "p-62 levels", "setting": "[1]", "value": "decay in p-62 levels"},
      {"measurement": "Early apoptosis", "setting": "[2]; 87.5 nM", "value": 52.3, "unit": "%"},
      {"measurement": "Late apoptosis", "setting": "[2]; 87.5 nM", "value": 39.7, "unit": "%"},
      {"measurement": "Live (AnV–/PI–)", "setting": "[2]; 87.5 nM", "value": 6.5, "unit": "%"},
      {"measurement": "Necrosis", "setting": "[2]; 87.5 nM", "value": 1.5, "unit": "%"},
      {"measurement": "Early apoptosis", "setting": "[2]; 175 nM", "value": 47.5, "unit": "%"},
      {"measurement": "Late apoptosis", "setting": "[2]; 175 nM", "value": 45.3, "unit": "%"},
      {"measurement": "Live (AnV–/PI–)", "setting": "[2]; 175 nM", "value": 4.1, "unit": "%"},
      {"measurement": "Necrosis", "setting": "[2]; 175 nM", "value": 3.1, "unit": "%"},
      {"measurement": "Apoptotic profile", "setting": "[2]; 87.5 and 175 nM", "value": "> 90", "unit": "%"},
      {"measurement": "Effect on microtubule network", "setting": "[3]", "value": "disrupted the microtubule network"},
      {"measurement": "Early apoptosis", "setting": "[4]; MCF7, 87.5 nM", "value": 11.7, "unit": "%"},
      {"measurement": "Late apoptosis", "setting": "[4]; MCF7, 87.5 nM", "value": 5.8, "unit": "%"},
      {"measurement": "Live (AnV–/PI–)", "setting": "[4]; MCF7, 87.5 nM", "value": 82.1, "unit": "%"},
      {"measurement": "Necrosis", "setting": "[4]; MCF7, 87.5 nM", "value": 0.5, "unit": "%"},
      {"measurement": "Apoptotic cells", "setting": "[4]; MCF7, 175 nM", "value": 33, "unit": "%"},
      {"measurement": "Early apoptosis", "setting": "[4]; MCF7, 175 nM", "value": 23.8, "unit": "%"},
      {"measurement": "Late apoptosis", "setting": "[4]; MCF7, 175 nM", "value": 9.5, "unit": "%"},
      {"measurement": "Live (AnV–/PI–)", "setting": "[4]; MCF7, 175 nM", "value": 65.7, "unit": "%"},
      {"measurement": "Necrosis", "setting": "[4]; MCF7, 175 nM", "value": 1.0, "unit": "%"},
      {"measurement": "Apoptotic cells", "setting": "[4]; MCF7, lowest concentration (87.5 nM)", "value": 18, "unit": "%"}
    ]}
  ]
}
